According to patent US7144865B2, “Compositions and methods for treating obesity” (The United States of America as represented by the …, priority 2003, dated 2006):
Like-named read-outs stand apart in the source and are kept apart here.

Key:
[1] = test system: intestinal zinc transport; conditions: cited from earlier work
[2] = test system: intestinal zinc absorption; conditions: normal (non-diabetic) rats, oral, cited from earlier work
[3] = Arachidonic acid plus zinc and L-histidine in drinking water for 14 days in ob/ob and lean mice (Example 2, Table 3); format: in vivo; conditions: for Body Weight Gain / Food Intake / Water Intake: 14 days, mean ± SEM
Description: Eight week old male C57BL/6J-obese ob/ob mice and their lean wild-type littermates were randomly divided into five groups of five mice and treated with the following levels of AA in drinking water: (i) 0 mg AA/l; (ii) 10 mg AA/l; (iii) 20 mg AA/l; (iv) 50 mg AA/l; or (v) 100 mg AA/l. 10 mg zinc and 0.5 mg L-histidine/l were also included at each level of AA described above. The treatment solutions were replaced with freshly prepared solutions every other day during the 2-week treatment period. Body weight, and food and water intake were measured every other day in the morning, beginning the first day of treatment.

[4] = cited from earlier work
[5] = cited from earlier work; remark: listed apart in the source
[6] = Water intake in G-K rats treated with AA plus zinc (Example 3, FIG. 10); format: in vivo; conditions: One-month old G-K rats, 2 weeks
Text: (FIG. 10). Thus, water intake was reduced in rats with all treatments containing zinc relative to DW-treated rats, but not with the AA-only treatment.

[7] = humans; CHP intake; cited from earlier work
[8] = CHP plus zinc and L-histidine in drinking water for 21 days in ob/ob and lean mice (Example 5, Table 1); format: in vivo; conditions: for Body Weight Gain / Food Intake / Water Intake: 21 days, mean ± SEM
Description: Ob/ob and lean mice were randomly divided into four groups and treated with drinking water containing either 0, 0.5, 1.0, or 1.5 mg CHP/L plus 10 mg zinc and 0.5 mg L-histidine/L. Drinking water containing test substances was prepared every other day with freshly prepared solutions. During the testing non-fasting blood glucose concentrations, food and water intake, and body weight were measured every other day in the morning. Non-fasting plasma insulin concentrations and three-hour average blood glucose concentrations were determined at the end of the three-week treatment period.

[9] = Plasma insulin levels in G-K rats treated with zinc and CHP (Example 1, Table 2); format: in vivo; conditions: for Plasma Insulin Levels (mean ± SEM): 6-month old G-K rats
Text: However, higher doses of CHP decreased plasma insulin levels. (Table 2)

[10] = cited from earlier work; remark: listed apart in the source
[11] = Body weight and growth rate of G-K rats treated with zinc or zinc plus CHP (FIGS. 1, 2, 11-13); format: in vivo; conditions: one month old (young) G-K rats; FIG. 2
Text: I believe that CHP is effective in maintaining body weight control even after the cessation of the treatment.

[12] = Food and water intake in G-K rats treated with zinc or zinc plus CHP (FIGS. 6, 8); format: in vivo
[13] = Body weight and water intake in S-D rats treated with zinc or zinc plus CHP (FIGS. 4, 5, 9); conditions: 8-month old S-D rats; FIG. 9
[14] = Lean mice, 10 mg/L AA plus 10 mg/L zinc and 0.5 mg/L L-histidine
[15] = Lean mice, 20 mg/L AA plus 10 mg/L zinc and 0.5 mg/L L-histidine
[16] = Lean mice, 50 mg/L AA plus 10 mg/L zinc and 0.5 mg/L L-histidine
[17] = Lean mice, 100 mg/L AA plus 10 mg/L zinc and 0.5 mg/L L-histidine
[18] = Ob/ob mice, 10 mg/L AA plus 10 mg/L zinc and 0.5 mg/L L-histidine
[19] = Ob/ob mice, 20 mg/L AA plus 10 mg/L zinc and 0.5 mg/L L-histidine, p < 0.05 vs 0 mg/l group
[20] = Ob/ob mice, 50 mg/L AA plus 10 mg/L zinc and 0.5 mg/L L-histidine
[21] = Ob/ob mice, 100 mg/L AA plus 10 mg/L zinc and 0.5 mg/L L-histidine
[22] = Lean mice, 0.5 mg/L CHP plus 10 mg/L zinc and 0.5 mg/L L-histidine
[23] = Lean mice, 1.0 mg/L CHP plus 10 mg/L zinc and 0.5 mg/L L-histidine
[24] = Lean mice, 1.5 mg/L CHP plus 10 mg/L zinc and 0.5 mg/L L-histidine
[25] = Ob/ob mice, 0.5 mg/L CHP plus 10 mg/L zinc and 0.5 mg/L L-histidine
[26] = Ob/ob mice, 1.0 mg/L CHP plus 10 mg/L zinc and 0.5 mg/L L-histidine
[27] = Ob/ob mice, 1.5 mg/L CHP plus 10 mg/L zinc and 0.5 mg/L L-histidine

CCCCC/C=C\C/C=C\C/C=C\C/C=C\CCCC(=O)O [AA, arachidonic acid]
zinc uptake (rate) of intestinal segments ([1]; jejunal / isolated intestinal segments of diabetic rats, AA added to the segment-bathing medium): increased significantly | zinc transport rate into the circulatory system ([1]; jejunal segments of diabetic rats): did not enhance | intestinal zinc absorption ([2]; high doses of AA, above 1.0 mg/200 g body weight): increased | intestinal zinc absorption ([2]; low doses of AA (0.5 mg/200 g)): decreased | Body Weight Gain [3, 14]: 1.0 ± 0.2 g | Food Intake [3, 14]: 143.9 ± 13.2 g/kg BW/day | Water Intake [3, 14]: 207.3 ± 23.6 ml/kg BW/day | Body Weight Gain [3, 15]: 0.6 ± 0.2 g | Food Intake [3, 15]: 129.9 ± 11.1 g/kg BW/day | Water Intake [3, 15]: 211.6 ± 23.6 ml/kg BW/day | Body Weight Gain [3, 16]: 1.0 ± 0.3 g | Food Intake [3, 16]: 133.1 ± 9.5 g/kg BW/day | Water Intake [3, 16]: 211.9 ± 21.5 ml/kg BW/day | Body Weight Gain [3, 17]: 0.6 ± 0.1 g | Food Intake [3, 17]: 130.0 ± 13.2 g/kg BW/day | Water Intake [3, 17]: 216.1 ± 21.0 ml/kg BW/day | Body Weight Gain [3, 18]: 2.3 ± 0.7 g | Food Intake [3, 18]: 126.5 ± 13.2 g/kg BW/day | Water Intake [3, 18]: 215.9 ± 15.2 ml/kg BW/day | Body Weight Gain ([3]; Ob/ob mice, 20 mg/L AA plus 10 mg/L zinc and 0.5 mg/L L-histidine): 2.6 ± 0.4 g | Food Intake [3, 19]: 107.5 ± 9.0 g/kg BW/day | Water Intake [3, 19]: 182.9 ± 12.4 ml/kg BW/day | Body Weight Gain [3, 20]: 2.4 ± 1.7 g | Food Intake [3, 20]: 114.4 ± 9.9 g/kg BW/day | Water Intake ([3]; Ob/ob mice, 50 mg/L AA plus 10 mg/L zinc and 0.5 mg/L L-histidine, p < 0.05 vs 0 mg/l group): 188.7 ± 11.5 ml/kg BW/day | Body Weight Gain [3, 21]: 2.9 ± 0.5 g | Food Intake [3, 21]: 116.0 ± 12.0 g/kg BW/day | Water Intake ([3]; Ob/ob mice, 100 mg/L AA plus 10 mg/L zinc and 0.5 mg/L L-histidine, p < 0.05 vs 0 mg/l group): 198.9 ± 15.3 ml/kg BW/day | water and food intake ([3]; lean mice): no treatment effect | Food intake versus those treated with only zinc and L-histidine ([3]; obese mice, 20 mg/L AA plus zinc, p<0.05): significantly lower | Water intake versus those given only zinc and L-histidine ([3]; obese mice, 20, 50 or 100 mg AA/l, p<0.05): significantly lower | body weight ([3]; obese or lean mice): no effect | Water Intake ([4]; genetically obese mice): significantly reduced | optimal concentration of AA required to provide improved blood glucose levels ([4]; obese mice): 2.0 mg/day/kg | Water Intake ([5]; diabetic G-K rats): significantly reduced | optimal concentration of AA required to provide improved blood glucose levels ([5]; diabetic G-K rats): 4.0 mg/day/kg | water consumption rates ([5]; diabetic rats, higher doses of AA): significantly decreased | optimal concentration of AA required to provide improved blood glucose levels ([5]; streptozotocin induced diabetic rats): 11 mg/day/kg | Water Intake ([5]; streptozotocin-induced diabetic rats): significantly reduced | water intake reduced relative to DW-treated rats ([6]; AA-only treatment (20 mg/L AA)): not

O=C1N[C@@H](Cc2cnc[nH]2)C(=O)N2CCC[C@@H]12 [CHP, cyclo-Hispro]
Food Intake [7]: decreases | Body Weight Gain [8, 22]: 1.5 ± 0.4 g | Food Intake [8, 22]: 171.7 ± 12.5 g/kg BW/day | Water Intake [8, 22]: 267.1 ± 22.7 ml/kg BW/day | Body Weight Gain [8, 23]: 1.3 ± 0.5 g | Food Intake [8, 23]: 159.6 ± 7.3 g/kg BW/day | Water Intake [8, 23]: 258.2 ± 21.8 ml/kg BW/day | Body Weight Gain [8, 24]: 2.2 ± 0.9 g | Food Intake [8, 24]: 180.6 ± 19.5 g/kg BW/day | Water Intake [8, 24]: 302.5 ± 27.2 ml/kg BW/day | Body Weight Gain [8, 25]: 4.3 ± 0.8 g | Food Intake [8, 25]: 128.3 ± 7.8 g/kg BW/day | Water Intake [8, 25]: 198.2 ± 13.5 ml/kg BW/day | Food Intake [8, 26]: 110.6 ± 10.3 g/kg BW/day | Water Intake [8, 26]: 160.4 ± 9.7 ml/kg BW/day | Body Weight Gain ([8]; Ob/ob mice, 1.0 mg/L CHP plus 10 mg/L zinc and 0.5 mg/L L-histidine, p < 0.05 vs 0 or 0.5 mg CHP/L): 2.3 ± 0.8 g | Body Weight Gain [8, 27]: 3.8 ± 0.9 g | Food Intake [8, 27]: 120.7 ± 10.4 g/kg BW/day | Water Intake [8, 27]: 192.5 ± 16.8 ml/kg BW/day | Water and food intake relative to the other treatment groups ([8]; ob/ob mice, 1.0 mg CHP plus zinc and L-histidine, difference not significant): lowest | Body weight gain relative to those given zinc and L-histidine only ([8]; ob/ob mice, 1.0 mg CHP/L plus zinc and L-histidine, P<0.05): significantly reduced | Plasma Insulin Levels (mean ± SEM) ([9]; CHP only 1.0 mg/L in drinking water): 0.907 ± 0.090 ng/mL | plasma insulin levels ([9]; hyperinsulinemic diabetic G-K rats, higher / increasing doses of CHP): decreased | Water Intake ([10]; intraventricular administration): significantly reduces | Food Intake ([10]; rats, CHP intake): decreases

[Zn] [zinc]
Plasma Insulin Levels (mean ± SEM) ([9]; zinc only 10 mg/L in drinking water): 0.637 ± 0.048 ng/mL | growth rates [11]: not affected | Water Intake ([6]; 10 mg/L zinc only): significantly decreased | Water Intake ([12]; 1.0-month-old rats): not affected | Water intake compared to distilled water (DW) treated rats ([12]; 10 month old G-K rats, P<0.01, FIG. 8): significantly lower | water intakes [13]: significantly decreased
